Earlier results, collected in patent publication US20090170816A1, “COMBINATION COMPRISING SQUALENE, A PHOSPHOLIPID AND AN OMEGA 3 FATTY ACID FOR THE TREATMENT OF CANCER” (FARMALEIS S.L., priority 2005, published 2009).

Assays:
Colon cancer = conditions: Table 1, source Carcinogenesis vol. 19 no. 2 pp. 287-290, 1998
[1] = test system: chemically-induced lung tumours; conditions: compared to animals not receiving squalene

CC(C)=CCC/C(C)=C/CC/C(C)=C/CC/C=C(\C)CC/C=C(\C)CCC=C(C)C [Squalene]
Survival percentage (Colon cancer): 50% ^(1) | incidence of tumours [1]: lower incidence of tumours | multiplicity of tumours [1]: lower multiplicity | volume of tumours [1]: smaller volume
